Assay results reported in ChEMBL document CHEMBL3421628, “Discovery of Intestinal Targeted TGR5 Agonists for the Treatment of Type 2 Diabetes” (J Med Chem, 2015).
Blank lines part the entries; values can stand above or below the molecule they belong to.

Assays:
in vitro [1] = details: human, Caco-2
in vitro [2] = details: human, Caco-2; remark: listed apart in the source
in vitro [3] = details: human, Caco-2; remark: listed apart in the source
in vitro [4] = details: human, Caco-2; remark: listed apart in the source
[5] = Tmax in Sprague-Dawley rat at 5 mg/kg, po by LC-MS/MS method; format: ADME, organism-based; design: dose 5 mg/kg, route oral; details: in vivo
Rattus norvegicus [6] = assay: Cmax in Sprague-Dawley rat assessed as 3-(2,5-Dichloro-4-((3-(4-cyclopropyl-1,2,3,4-tetrahydroquinoxaline-1-carbonyl)pyridin-4-yl)oxy)phenyl)propanoic acid level at 5 mg/kg, po by LC-MS/MS method; format: ADME, organism-based; design: dose 5 mg/kg, route oral; details: in vivo
Rattus norvegicus [7] = assay: Mean residence time in Sprague-Dawley rat assessed as 3-(2,5-Dichloro-4-((3-(4-cyclopropyl-1,2,3,4-tetrahydroquinoxaline-1-carbonyl)pyridin-4-yl)oxy)phenyl)propanoic acid level at 5 mg/kg, po by LC-MS/MS method; format: ADME, organism-based; design: dose 5 mg/kg, route oral; details: in vivo
[8] = Cmax in Sprague-Dawley rat at 5 mg/kg, po by LC-MS/MS method; format: ADME, organism-based; design: dose 5 mg/kg, route oral; details: in vivo
Rattus norvegicus [9] = assay: AUC (0 to t) in Sprague-Dawley rat assessed as 3-(2,5-Dichloro-4-((3-(4-cyclopropyl-1,2,3,4-tetrahydroquinoxaline-1-carbonyl)pyridin-4-yl)oxy)phenyl)propanoic acid level at 5 mg/kg, po by LC-MS/MS method; format: ADME, organism-based, Plasma; design: dose 5 mg/kg, route oral; details: in vivo
Rattus norvegicus [10] = assay: Half life in Sprague-Dawley rat assessed as 3-(2,5-Dichloro-4-((3-(4-cyclopropyl-1,2,3,4-tetrahydroquinoxaline-1-carbonyl)pyridin-4-yl)oxy)phenyl)propanoic acid level at 5 mg/kg, po by LC-MS/MS method; format: ADME, organism-based; design: dose 5 mg/kg, route oral; details: in vivo
[11] = Half life in Sprague-Dawley rat at 5 mg/kg, po by LC-MS/MS method; format: ADME, organism-based; design: dose 5 mg/kg, route oral; details: in vivo
Rattus norvegicus [12] = assay: AUC (0 to infinity) in Sprague-Dawley rat assessed as 3-(2,5-Dichloro-4-((3-(4-cyclopropyl-1,2,3,4-tetrahydroquinoxaline-1-carbonyl)pyridin-4-yl)oxy)phenyl)propanoic acid level at 5 mg/kg, po by LC-MS/MS method; format: ADME, organism-based, Plasma; design: time infinity, dose 5 mg/kg, route oral; details: in vivo
Rattus norvegicus [13] = assay: Tmax in Sprague-Dawley rat assessed as 3-(2,5-Dichloro-4-((3-(4-cyclopropyl-1,2,3,4-tetrahydroquinoxaline-1-carbonyl)pyridin-4-yl)oxy)phenyl)propanoic acid level at 5 mg/kg, po by LC-MS/MS method; format: ADME, organism-based; design: dose 5 mg/kg, route oral; details: in vivo
[14] = AUC (0 to infinity) in Sprague-Dawley rat at 5 mg/kg, po by LC-MS/MS method; format: ADME, organism-based; design: time infinity, dose 5 mg/kg, route oral; details: plasma
[15] = AUC (0 to t) in Sprague-Dawley rat at 5 mg/kg, po by LC-MS/MS method; format: ADME, organism-based; design: dose 5 mg/kg, route oral; details: plasma
[16] = Mean residence time in Sprague-Dawley rat at 5 mg/kg, po by LC-MS/MS method; format: ADME, organism-based; design: dose 5 mg/kg, route oral; details: in vivo
[17] = Drug level in ICR mouse bile at 150 mg/kg, po after 3.5 hrs by LC-MS/MS method; format: ADME, organism-based; design: dose 150 mg/kg, route oral; details: read-out: Drug uptake
Rattus norvegicus [18] = assay: Drug metabolism in Sprague-Dawley rat assessed as 3-(2,5-Dichloro-4-((3-(4-cyclopropyl-1,2,3,4-tetrahydroquinoxaline-1-carbonyl)pyridin-4-yl)oxy)phenyl)propanoic acid level at 20 mg/kg, po after 15 mins to 24 hrs by LC-MS/MS method; format: ADME, organism-based; design: dose 20 mg/kg, route oral; details: in vivo
[19] = Drug level in ICR mouse plasma at 150 mg/kg, po after 3.5 hrs by LC-MS/MS method; format: ADME, organism-based; design: dose 150 mg/kg, route oral
[20] = Drug level in ICR mouse bile at 150 mg/kg, po after 2 hrs by LC-MS/MS method; format: ADME, organism-based; design: dose 150 mg/kg, route oral; details: read-out: Drug uptake
[21] = Drug metabolism in ICR mouse gall bladder assessed as 3-(2,5-Dichloro-4-((3-(4-cyclopropyl-1,2,3,4-tetrahydroquinoxaline-1-carbonyl)pyridin-4-yl)oxy)phenyl)propanoic acid level at 150 mg/kg, po after 4 hrs by LC-MS/MS method; format: ADME, organism-based; design: dose 150 mg/kg, route oral; details: in vivo
[22] = Drug level in ICR mouse gall bladder at 150 mg/kg, po after 2 hrs by LC-MS/MS method; format: ADME, organism-based; design: dose 150 mg/kg, route oral; details: in vivo
[23] = Drug level in ICR mouse gall bladder at 150 mg/kg, po after 2.5 hrs by LC-MS/MS method; format: ADME, organism-based; design: dose 150 mg/kg, route oral; details: in vivo
[24] = Drug level in ICR mouse plasma at 150 mg/kg, po after 2.5 hrs by LC-MS/MS method; format: ADME, organism-based; design: dose 150 mg/kg, route oral
[25] = Drug level in ICR mouse gall bladder at 150 mg/kg, po after 3.5 hrs by LC-MS/MS method; format: ADME, organism-based; design: dose 150 mg/kg, route oral; details: in vivo
[26] = Drug level in ICR mouse bile at 150 mg/kg, po after 2.5 hrs by LC-MS/MS method; format: ADME, organism-based; design: dose 150 mg/kg, route oral; details: read-out: Drug uptake
[27] = Drug level in ICR mouse plasma at 150 mg/kg, po after 2 hrs by LC-MS/MS method; format: ADME, organism-based; design: dose 150 mg/kg, route oral
Rattus norvegicus [28] = assay: Drug level in Sprague-Dawley rat at 20 mg/kg, po after 15 mins to 24 hrs by LC-MS/MS method; format: ADME, organism-based; design: dose 20 mg/kg, route oral; details: in vivo
[29] = Drug level in ICR mouse gall bladder at 150 mg/kg, po after 4 hrs by LC-MS/MS method; format: ADME, organism-based; design: dose 150 mg/kg, route oral; details: in vivo

SMILES: O=C(c1cnccc1Oc1cc(Cl)ccc1Cl)N1CCN(C2CC2)c2ccccc21
Papp B→A at 20 µM (in vitro [1]): 5.58 ×10⁻⁶ cm/s
recovery at 20 µM (in vitro [2]): 69.4%
Papp A→B at 20 µM (in vitro [3]): 6.75 ×10⁻⁶ cm/s
recovery at 20 µM (in vitro [4]): 46.8%

Tmax [5]: 0.44 h
Cmax (Rattus norvegicus [6]): 15.5 ng/mL
MRT (Rattus norvegicus [7]): 5.47 h
Cmax [8]: 13.5 ng/mL
AUCt (Rattus norvegicus [9]): 84.9 ng·h/mL
t1/2 (Rattus norvegicus [10]): 1.77 h
half-life [11]: 1.56 h
AUC (Rattus norvegicus [12]): 241 ng·h/mL
Tmax (Rattus norvegicus [13]): 3.5 h
AUC(0-inf) [14]: 39.7 ng·h/mL
AUC(0-t) [15]: 23.9 ng·h/mL
MRT [16]: 2.37 h
SMILES: O=C(O)CNC(=O)CCc1cc(Cl)c(Oc2ccncc2C(=O)N2CCN(C3CC3)c3ccccc32)cc1Cl

Papp B→A at 20 µM (in vitro [1]): 2.24 ×10⁻⁶ cm/s
recovery at 20 µM (in vitro [2]): 91.2%
concentration at 3.5 h [17]: 3.8 nM
Papp A→B at 20 µM (in vitro [3]): 0.04 ×10⁻⁶ cm/s
Drug metabolism (Rattus norvegicus [18]): metabolite_notdetected
concentration at 3.5 h [19]: 2.9 nM
concentration at 2 h [20]: 3.6 nM
Drug metabolism [21]: metabolite_notdetected
Drug uptake [22]: Not Active
Drug uptake [23]: Not Active
concentration at 2.5 h [24]: 6.9 nM
Drug uptake [25]: Not Active
concentration at 2.5 h [26]: 3.5 nM
recovery at 20 µM (in vitro [4]): 99.5%
concentration at 2 h [27]: 4.4 nM
Drug uptake (Rattus norvegicus [28]): < 3 ng/mL
Drug uptake [29]: < 3 ng
SMILES: O=C(CCc1cc(Cl)c(Oc2ccncc2C(=O)N2CCN(C3CC3)c3ccccc32)cc1Cl)NCCOCCOCCOCCOCCOCCOCCOCCOCCNC(=O)CCc1cc(Cl)c(Oc2ccncc2C(=O)N2CCN(C3CC3)c3ccccc32)cc1Cl

Papp B→A at 20 µM (in vitro [1]): 15.8 ×10⁻⁶ cm/s
recovery at 20 µM (in vitro [2]): 95.8%
Papp A→B at 20 µM (in vitro [3]): 0.1 ×10⁻⁶ cm/s
recovery at 20 µM (in vitro [4]): 101%
SMILES: C[C@H]1O[C@@H](O[C@H]2[C@@H](O)C[C@H](O[C@H]3[C@@H](O)C[C@H](O[C@H]4CC[C@@]5(C)[C@H](CC[C@@H]6[C@@H]5C[C@@H](O)[C@]5(C)[C@@H](C7=CC(=O)OC7)CC[C@]65O)C4)O[C@@H]3C)O[C@@H]2C)C[C@H](O)[C@@H]1O [DIGOXIN]
